The source of these data is paper PMC2918699 (European journal of medicinal chemistry, 2010).

The structures appear in SMILES notation.

The nature of data set [1]: GC-MS analysis of stilbenes in mice serum. The data set is classed as in vivo, SCID mice. The following applies: GC-MS retention time and mass spectrum compared to standards.
The test system of a further data set is PCNA. The data set can be described thus: PCNA in HT-29 tumors by western blotting and immunohistochemistry. Format: in vivo, SCID mice. The following applies: western blotting and immunohistochemistry of HT-29 tumors. (A western blot detects proteins with antibodies after separation by electrophoresis.)
The next data set has as its system p27. In words: p27 in HT-29 tumors by western blotting and immunohistochemistry. The data set is classed as in vivo, SCID mice. The following applies: western blotting and immunohistochemistry of HT-29 tumors.
The subject of a further data set is HT-29 xenograft. In words: HT-29 xenograft tumor growth in SCID mice. The following applies: 10 mg/kg i.p. once daily, after 3 weeks. The data set is classed as in vivo.
The test system of the next data set is yeast. As to conditions: yeast assays, mimics calorie restriction by stimulating Sir2; cited from earlier work.

As for `COc1cc(/C=C\c2ccc(N)cc2)cc(OC)c1` [Compound 4, (Z)-4-(3,5-dimethoxystyryl)aniline], the “Configuration (cis/trans) found in the serum” value in data set [1] is on record as “isomerized to 3”.
On the same count and under the same terms, the result for `COC(=O)c1ccc(/C=C/c2cc(OC)cc(OC)c2)cc1` [Compound 5, (E)-Methyl-4-(3,5-dimethoxystyryl)benzoate] reads “retained their configurations”; that for `COC(=O)c1ccc(/C=C\c2cc(OC)cc(OC)c2)cc1` [Compound 6, (Z)- Methyl 4-(3,5-dimethoxystyryl)benzoate], “retained their configurations”.
`COc1ccc(/C=C/c2cc(OC)cc(OC)c2)cc1` [Compound 9, (E)-1,3-dimethoxy-5-(4-methoxystyryl)benzene]: in the data set on PCNA, the “PCNA levels in tumors” value was “lowered”. Besides, in the data set with p27, the “p27 levels in tumors” value is “increased”. Also, in the data set with HT-29 xenograft, the “Tumor volume lower compared to the control” value is recorded as 45% and the “Tumor weight decrease compared to the control” value was determined as 21%. Further, in data set [1], the “Configuration (cis/trans) found in the serum” value is given as “retained their configurations”.
In the case of `COc1ccc(/C=C\c2cc(OC)cc(OC)c2)cc1` [Compound 10, (Z)-1,3-dimethoxy-5-(4-methoxystyryl)benzene], the “Tumor weight decrease compared to the control” value in the data set on HT-29 xenograft is 15%. For the same compound, the “Configuration (cis/trans) found in the serum” value in data set [1] is listed as “retained their configurations”.
Regarding `Oc1ccc(/C=C/c2cc(O)cc(O)c2)cc1` [Compound 17, Resveratrol], the extended lifespan with yeast is on record as 70%.
